Results reported in patent US9085536B2, “Aconitine compounds, compositions, uses, and preparation thereof” (priority 2011, dated 2015).
“Also recorded” adds a separate entry of the source. Read-outs that look alike come from different tables or passages of the source.

What was measured:
[1] = biological target: T1, rNaV1.4 expressed in CHO cells (Rattus norvegicus, UniProt P15390); assay: Na+ current block at steady state, whole-cell patch clamp with pulse trains; assay type: cell-based; conditions: for Current measured at 20 μM (%) / Current measured at 75 μM (%): before wash-off; for depolarizing pulses required to reach steady-state block: 10 Hz pulse trains
T1 construct: expressed in transfected cells; host or cells: CHO cells
T1 sequence (P15390 whole entry): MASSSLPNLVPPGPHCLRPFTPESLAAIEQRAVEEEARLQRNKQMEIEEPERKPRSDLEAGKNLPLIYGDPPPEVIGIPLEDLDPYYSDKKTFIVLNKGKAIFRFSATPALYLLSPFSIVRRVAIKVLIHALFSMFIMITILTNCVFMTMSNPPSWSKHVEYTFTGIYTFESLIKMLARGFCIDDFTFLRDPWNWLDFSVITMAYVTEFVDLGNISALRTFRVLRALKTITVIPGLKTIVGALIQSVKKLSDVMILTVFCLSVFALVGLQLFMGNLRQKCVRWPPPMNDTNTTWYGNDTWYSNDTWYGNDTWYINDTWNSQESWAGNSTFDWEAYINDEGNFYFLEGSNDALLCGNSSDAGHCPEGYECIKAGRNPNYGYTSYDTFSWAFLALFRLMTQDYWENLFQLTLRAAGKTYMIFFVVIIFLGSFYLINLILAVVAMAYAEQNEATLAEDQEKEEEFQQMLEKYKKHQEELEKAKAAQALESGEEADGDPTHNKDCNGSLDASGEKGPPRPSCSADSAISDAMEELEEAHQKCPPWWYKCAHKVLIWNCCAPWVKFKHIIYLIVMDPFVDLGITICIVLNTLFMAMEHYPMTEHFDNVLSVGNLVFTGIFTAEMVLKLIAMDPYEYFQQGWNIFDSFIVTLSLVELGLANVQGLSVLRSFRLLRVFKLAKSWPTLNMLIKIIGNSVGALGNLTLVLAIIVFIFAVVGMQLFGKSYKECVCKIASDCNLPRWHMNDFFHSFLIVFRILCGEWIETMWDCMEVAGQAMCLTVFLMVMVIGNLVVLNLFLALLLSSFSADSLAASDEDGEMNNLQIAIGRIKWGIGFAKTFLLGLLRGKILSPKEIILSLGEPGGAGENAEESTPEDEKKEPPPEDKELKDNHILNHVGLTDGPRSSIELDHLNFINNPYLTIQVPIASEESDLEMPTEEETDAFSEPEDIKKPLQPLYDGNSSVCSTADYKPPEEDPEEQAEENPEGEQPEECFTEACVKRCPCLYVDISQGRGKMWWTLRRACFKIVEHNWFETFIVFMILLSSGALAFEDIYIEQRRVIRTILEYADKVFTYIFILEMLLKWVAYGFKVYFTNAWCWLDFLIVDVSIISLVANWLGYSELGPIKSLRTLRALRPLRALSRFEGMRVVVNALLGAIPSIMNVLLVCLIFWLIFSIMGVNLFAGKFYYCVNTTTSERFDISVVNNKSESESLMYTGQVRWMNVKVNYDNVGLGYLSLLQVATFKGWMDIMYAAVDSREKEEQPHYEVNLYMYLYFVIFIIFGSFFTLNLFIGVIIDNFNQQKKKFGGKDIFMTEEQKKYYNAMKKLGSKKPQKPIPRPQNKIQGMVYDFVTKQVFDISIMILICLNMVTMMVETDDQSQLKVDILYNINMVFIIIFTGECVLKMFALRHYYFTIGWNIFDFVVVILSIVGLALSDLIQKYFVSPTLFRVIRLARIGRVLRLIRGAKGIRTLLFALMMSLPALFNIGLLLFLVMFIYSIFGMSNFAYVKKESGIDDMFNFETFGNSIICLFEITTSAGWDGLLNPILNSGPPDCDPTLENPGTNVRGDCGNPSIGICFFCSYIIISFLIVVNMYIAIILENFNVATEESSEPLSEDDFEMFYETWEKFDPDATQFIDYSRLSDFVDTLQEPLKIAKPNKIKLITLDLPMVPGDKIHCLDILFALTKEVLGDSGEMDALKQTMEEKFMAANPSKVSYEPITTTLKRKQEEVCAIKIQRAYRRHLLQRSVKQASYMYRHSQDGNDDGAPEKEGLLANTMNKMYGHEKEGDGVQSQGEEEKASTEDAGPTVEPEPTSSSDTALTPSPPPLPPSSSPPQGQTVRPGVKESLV
Protocol: Binding of aconitine to NaV is use-dependent and is known to result both in a left shift of the current-voltage (I-V) relationship and in partial block of the channel. […] To determine whether aconitine binding is reversible, two experiments were designed. First, as block by aconitine is known to be use dependent, peak current was measured as a function of pulse number in the presence of two different concentrations of aconitine. Since aconitine binds preferentially to the open state of the sodium channel, a pulse train was applied sequentially with a control pulse used to record peak current. The pulse train consisted of a series of 50 depolarizing pulses (from −100 mV holding potential to 0 mV, 10 ms duration) applied at 10 Hz frequency, while the control pulse consisted of a single depolarizing pulse (from −100 mV holding potential to 0 mV test potential, 10 ms duration).
Pulse trains of 10 Hz frequency and control pulses were applied sequentially to cells expressing rNaV1.4, and currents elicited from the control pulse were recorded after each pulse train. This process was repeated until the current elicited from the control pulse had reached a steady state and was no longer decreasing with each additional pulse train. If block were irreversible, this steady state current would be expected to be independent of toxin concentration—the toxin would not be able to dissociate from its receptor, and the number of toxin molecules is much greater than the number of sodium channels (assuming a 100 μL chamber containing 1000 CHO cells, each expressing 10,000 sodium channels, at 50 μM concentration toxin molecules outnumber receptors by a factor of 3×10^8:1), therefore, all receptors would eventually reach the bound state.
Block by aconitine is known to be use-dependent, therefore the use-dependence of the C14 derivatives of aconitine was evaluated. Peak Na current was measured as a function of pulse number in the presence of different concentrations of the molecules. […] Since aconitine binds preferentially to the open state of the sodium channel, a pulse train was applied sequentially with a control pulse used to record peak current. The pulse train consisted of a series of 50 depolarizing pulses (from −100 mV holding potential to 0 mV, 10 ms duration) applied at 10 Hz frequency, while the control pulse consisted of a single depolarizing pulse (from −100 mV holding potential to 0 mV test potential, 10 ms duration).
Pulse trains of 10 Hz frequency and control pulses were applied sequentially to CHO cells expressing rNaV1.4, and currents elicited from the control pulse were recorded after each pulse train. This process was repeated until the current elicited from the control pulse had reached a steady state and was no longer decreasing with each additional pulse train. If block were irreversible, this steady state current would be expected to be independent of toxin concentration—the toxin would not be able to dissociate from its receptor, and the number of toxin molecules is much greater than the number of sodium channels, therefore, all receptors would eventually reach the bound state.
The ability of the synthesized aconitine derivatives to block NaV channels was evaluated with patch-clamp experiments in the whole-cell configuration on CHO cells expressing rNaV1.4 heterologously. A buffer solution containing the toxin was applied to the cells, whole-cell Na^+ currents were recorded until the decreasing current reached a steady-state (300 to 3000 pulses, depending on the molecules and concentrations). The peak Na^+ currents were measured with a depolarizing test pulse (from −100 mV holding potential to 0 mV test potential, 10 ms duration).

[2] = biological target: T1, rNaV1.4 expressed in CHO cells; assay type: cell-based; conditions: for reversibility of binding upon wash-off: wash-off experiments, Table 3 concentrations
Protocol: […] […] It is noteworthy that little or no increase in current was observed during wash off when no depolarizing pulses were applied and peak current was measured as a function of time.
Since the molecules bind to the open-state of the Nav channel their release also requires activation pulses. In typical experiments, buffered external solution was perfused and a pulse train sequence was applied to the patch-clamp until the current reached a steady-state for at least two minutes.

[3] = biological target: T1, rNaV1.4 expressed in CHO cells; assay: Activation: current-voltage (I-V) and conductance-voltage (G-V) relationship, whole-cell recording; assay type: cell-based
Protocol: To determine if the shift in I-V relationship is affected by the aromaticity of the aconitine C14 benzoate, current-voltage relationships were recorded for control cells expressing NaV, those that had been modified by aconitine, and those that had been modified by aconitine C14-cyclohexanoate 4.8d. For the modified channels, solutions of 50 μM concentration of the respective toxins were perfused onto the cells, and then depolarizing pulses were applied until a steady state current was observed, generally requiring about 1000 pulses. At that time, current-voltage relationships were again recorded. […] A shift towards hyperpolarizing potentials is clearly observed in both cases. Currents recorded at −50 mV are highlighted for all three experiments.
To determine the effect on current-voltage (I-V) relationship of the aconitine derivatives, whole cell currents were recorded in cells expressing NaV in the presence of aconitine derivatives. Control I-V plots were recorded with unmodified NaV1.4, to which were compared NaV channels modified by aconitine as well as by selected analogs. For the modified channels, solutions of the respective toxins were perfused onto the cells, and then depolarizing pulses were applied until a steady state current was observed, generally requiring about 1000 pulses. A sequence of test pulses was then recorded to determine the current-voltage relationships (using a step protocol in which CHO cells were depolarized for 10 ms from a holding potential of −100 mV to a range of potentials from −95 mV to +30 mV in 5 or 10 mV increments; peak currents were normalized to the maximum peak current and plotted against voltage).

[4] = biological target: T1, rNaV1.4 expressed in CHO cells; assay: Steady-state inactivation, whole-cell recording, Boltzmann fit; assay type: cell-based
Protocol: . The channels were modified by perfusing the cells with buffered solution containing aconitine at the given concentrations and then simple pulses (10 ms pulses to 0 mV from −100 mV holding potential) were recorded until the currents leveled to a steady value (typically ˜1000 pulses). Steady-state fast inactivation of the current was then determined by delivering 500 ms conditioning pulses to potentials ranging from −130 to −11 mV (7 my increments) immediately followed by a 10 ms test pulse to 0 mV to test the available current. The peak current measured during the test pulse was normalized to the maximum peak current recorded in the conditioning pulses. […] Midpoint voltage V0.5 represents the membrane potential at which half maximum current is observed; slope factor at midpoint k quantifies the rate at which the inactivation response occurs.

NaV1.8 = NaV1.8 (Homo sapiens, UniProt Q9Y5Y9); conditions: cited from earlier work
NaV1.2 = NaV1.2 (Homo sapiens, UniProt Q99250); conditions: cited from earlier work
NaV1.2, sequence (Q99250 whole entry, looked up): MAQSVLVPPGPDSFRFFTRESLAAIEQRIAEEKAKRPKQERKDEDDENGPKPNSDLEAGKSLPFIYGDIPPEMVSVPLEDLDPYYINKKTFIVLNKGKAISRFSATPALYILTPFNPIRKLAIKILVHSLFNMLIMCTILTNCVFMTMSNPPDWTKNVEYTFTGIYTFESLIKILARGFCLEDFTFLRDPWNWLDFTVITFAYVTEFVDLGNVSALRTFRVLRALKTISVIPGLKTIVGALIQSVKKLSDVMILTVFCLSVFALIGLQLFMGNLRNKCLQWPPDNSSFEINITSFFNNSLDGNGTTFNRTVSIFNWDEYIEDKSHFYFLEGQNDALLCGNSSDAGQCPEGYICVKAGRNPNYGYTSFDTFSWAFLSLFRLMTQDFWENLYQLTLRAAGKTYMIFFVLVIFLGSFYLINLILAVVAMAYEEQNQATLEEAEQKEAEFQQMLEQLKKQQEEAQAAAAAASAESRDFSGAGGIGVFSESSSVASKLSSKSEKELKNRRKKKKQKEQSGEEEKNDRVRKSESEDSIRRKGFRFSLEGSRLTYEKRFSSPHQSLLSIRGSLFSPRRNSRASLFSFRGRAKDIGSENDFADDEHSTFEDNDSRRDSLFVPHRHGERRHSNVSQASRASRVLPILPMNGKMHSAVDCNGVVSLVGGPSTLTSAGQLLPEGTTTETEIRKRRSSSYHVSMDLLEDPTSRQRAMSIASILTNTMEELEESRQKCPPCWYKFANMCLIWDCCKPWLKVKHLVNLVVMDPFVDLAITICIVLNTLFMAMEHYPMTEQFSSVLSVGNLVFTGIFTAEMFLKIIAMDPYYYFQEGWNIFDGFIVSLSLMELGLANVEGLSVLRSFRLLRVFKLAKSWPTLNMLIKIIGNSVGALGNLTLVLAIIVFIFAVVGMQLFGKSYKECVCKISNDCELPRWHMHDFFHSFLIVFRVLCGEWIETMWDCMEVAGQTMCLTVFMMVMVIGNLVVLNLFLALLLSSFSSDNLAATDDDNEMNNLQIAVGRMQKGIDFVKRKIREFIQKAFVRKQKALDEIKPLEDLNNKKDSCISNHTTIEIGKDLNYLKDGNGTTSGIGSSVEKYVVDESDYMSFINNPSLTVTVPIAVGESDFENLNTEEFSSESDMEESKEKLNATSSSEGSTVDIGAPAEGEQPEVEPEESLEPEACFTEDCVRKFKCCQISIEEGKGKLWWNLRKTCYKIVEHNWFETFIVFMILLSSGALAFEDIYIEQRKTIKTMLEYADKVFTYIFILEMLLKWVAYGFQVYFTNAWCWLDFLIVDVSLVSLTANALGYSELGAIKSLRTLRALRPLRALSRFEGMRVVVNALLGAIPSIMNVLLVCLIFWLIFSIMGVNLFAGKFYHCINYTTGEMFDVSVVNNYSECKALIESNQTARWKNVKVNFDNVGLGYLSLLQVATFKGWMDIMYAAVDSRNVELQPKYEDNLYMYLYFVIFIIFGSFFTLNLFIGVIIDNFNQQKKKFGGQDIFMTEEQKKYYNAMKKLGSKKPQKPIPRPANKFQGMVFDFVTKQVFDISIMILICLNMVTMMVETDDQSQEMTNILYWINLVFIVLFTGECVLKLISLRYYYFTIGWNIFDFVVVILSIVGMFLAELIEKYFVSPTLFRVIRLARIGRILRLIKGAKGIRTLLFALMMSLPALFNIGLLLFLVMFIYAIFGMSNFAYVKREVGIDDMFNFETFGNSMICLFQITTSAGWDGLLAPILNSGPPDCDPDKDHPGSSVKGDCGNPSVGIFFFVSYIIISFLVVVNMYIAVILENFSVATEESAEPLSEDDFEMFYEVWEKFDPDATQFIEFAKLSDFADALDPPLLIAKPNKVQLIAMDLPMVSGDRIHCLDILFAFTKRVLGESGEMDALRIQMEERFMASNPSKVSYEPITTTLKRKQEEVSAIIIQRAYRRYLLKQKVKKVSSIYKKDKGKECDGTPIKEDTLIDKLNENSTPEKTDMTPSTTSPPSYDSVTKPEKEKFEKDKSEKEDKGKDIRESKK

Which “% Remaining current after reaching steady-state binding” value (shortened to “% Remaining current”) ([1]; 5 μM) does the source give for `CCN1CC2(COC)C3C(OC)C4C1C3(C1C[C@@]3(O)[C@H](OC(=O)c5ccc6ccccc6c5)[C@@H]1[C@]4(OC(C)=O)[C@@H](O)[C@@H]3OC)[C@@H](OC)C[C@H]2O` (stereo partly drawn) [4.8c] here?
The value was 38%.

What about the “% Remaining current” value ([1]; 20 μM) of the same compound?
Its value is 5%.

And the “peak current blocked at steady state” value ([1]; 20 μM)?
Its value is “around 95%”.

And the “Current measured at 20 μM (%)” value ([1]; 20 μM)?
Its value is 3%.

What about the “depolarizing pulses required to reach steady-state block” value (“depolarizing pulses required” for short) ([1]; 20 μM) of the same compound?
The value was 800 pulses.

What about the “peak current blocked at steady state” value ([1]; 73 μM) of the same compound?
Its value is “over 97%”.

And the “Current measured at 75 μM (%)” value ([1]; 73 μM (footnote b))?
The value was 3^b %.

And the “% Remaining current” value ([1]; 73 μM (footnote c, 75 μM column))?
Its value is 3^c %.

What about the “depolarizing pulses required” value ([1]; 73 μM) of the same compound?
Its value is ≤ 300 pulses.

What about the “% Remaining current” value ([1]; 200 μM) of the same compound?
The value was 3%.

And the “current observed at steady state” value ([1]; concentrations of 20 μM and above)?
Its value is ≤ 5%.

And the “Current after wash-off (%)” value ([2]; after wash-off of 20 μM)?
Its value is 4%.

And the “Current after wash-off (%)” value ([2]; after wash-off of 73 μM (footnote b))?
Its value is 3^b %.

What about the “reversibility of binding upon wash-off” value [2] of the same compound?
Its value is “did not restore substantial current; also recorded: completely irreversible”.

What about the “Activation V0.5 (mV)” value ([3]; 5 μM) of the same compound?
The value was −23.1 mV.

And the Activation hg ([3]; 5 μM)?
The Activation hg was 13.1.

What does the source list for `CCN1CC2(COC)C3C(OC)C4C1C3(C1C[C@@]3(O)[C@H](OC(=O)C5CCCCC5)[C@@H]1[C@]4(OC(C)=O)[C@@H](O)[C@@H]3OC)[C@@H](OC)C[C@H]2O` (stereo partly drawn) [4.8d]?
% Remaining current after reaching steady-state binding ([1]; 5 μM): 82%; peak current blocked at steady state ([1]; 20 μM): 85%; depolarizing pulses required to reach steady-state block ([1]; 20 μM): around 600 pulses; Current measured at 20 μM (%) ([1]; 21 μM (footnote c)): 15^c %; % Remaining current after reaching steady-state binding ([1]; 50 μM): 10%; peak current blocked at steady state ([1]; 50 μM): 90%; depolarizing pulses required to reach steady-state block ([1]; 50 μM): Approximately 1000 pulses; % Remaining current after reaching steady-state binding ([1]; 200 μM): 6%; peak current blocked at steady state ([1]; 200 μM): 94%; depolarizing pulses required to reach steady-state block ([1]; 200 μM): 200 pulses; Current after wash-off (%) ([2]; after wash-off of 20 μM): 79%; Current after wash-off (%) ([2]; after wash-off of 21 μM (footnote c)): 79^c %; shift of voltage of half-activation (V0.5) towards the hypo-polarization [3]: more than 20 mV; effect on activation threshold ([3]; 20 μM): did not significantly shift the activation threshold; hypopolarized shift of potential of maximum current ([3]; 20 μM): 10 mV; membrane potential at which maximum current is observed ([3]; 20 μM): 0 mV; Activation V0.5 (mV) ([3]; 21 μM): 1.3 mV; Activation hg ([3]; 21 μM): 15.4; current at −50 mV ([3]; 50 μM, after about 1000 pulses, no current in control cells): substantial currents; also recorded: more pronounced effect in this respect than the natural product; effect on threshold for inactivation ([4]; 20 μM): shifted the threshold for inactivation towards higher potentials; Steady-state inactivation V0.5 (mV) ([4]; 21 μM): −53.1 mV; Steady-state inactivation k (slope factor at midpoint) ([4]; 21 μM): 8.1; slope factor k of steady-state inactivation ([4]; concentration not given, unmodified ˜6): ~8

Which “% Remaining current” value ([1]; 50 μM) does the source give for `CCN1CC2(COC)C3C(OC)C4C1C3(C1C[C@@]3(O)[C@H](OC(=O)c5ccccc5N=[N+]=[N-])[C@@H]1[C@]4(OC(C)=O)[C@@H](O)[C@@H]3OC)[C@@H](OC)C[C@H]2O` (stereo partly drawn) [4.8f] here?
The value was 22%.

Which “concentration required to achieve the current levels observed with 20 μM aconitine” value [1] does the source give for `CCN1CC2(COC)C3[C@H](OC)C4C1C3(C1C[C@@]3(O)[C@H](OC(=O)c5cc6ccccc6oc5=O)C1[C@]4(OC(C)=O)[C@@H](O)[C@@H]3OC)[C@@H](OC)C[C@H]2O` (stereo partly drawn) [4.8g] here?
Its value is 75 µM.

What about the “% Remaining current” value ([1]; 20 μM) of the same compound?
The value was 79%.

And the “peak current blocked at steady state” value ([1]; 20 μM)?
Its value is 21%.

And the “Current measured at 20 μM (%)” value ([1]; 20 μM)?
The value was 79%.

And the “depolarizing pulses required” value ([1]; 20 μM)?
Its value is “over 2500 pulses”.

And the “% Remaining current” value ([1]; 75 μM)?
The value was 23%.

And the “peak current blocked at steady state” value ([1]; 75 μM)?
The value was 77%.

What about the “Current measured at 75 μM (%)” value ([1]; 75 μM) of the same compound?
The value was 23%.

And the “depolarizing pulses required” value ([1]; 75 μM)?
Its value is “over 3000 pulses”.

What about the “Current after wash-off (%)” value ([2]; after wash-off of 20 μM) of the same compound?
The value was 83%.

What about the “Current after wash-off (%)” value ([2]; after wash-off of 75 μM) of the same compound?
Its value is 31%.

What about the “reversibility of binding upon wash-off” value [2] of the same compound?
Its value is “did not restore substantial current”.

And the “Activation V0.5 (mV)” value ([3]; 75 μM)?
The value was −36 mV.

What about the Activation hg ([3]; 75 μM) of the same compound?
The Activation hg was 8.9.

What about the “Steady-state inactivation V0.5 (mV)” value ([4]; 75 μM) of the same compound?
The value was −75.6 mV.

What about the “Steady-state inactivation k (slope factor at midpoint)” value ([4]; 75 μM) of the same compound?
The value was 11.6.

What about the “steady-state inactivation V0.5” value ([4]; concentration not given) of the same compound?
Its value is −76 mV.

And the “shift of steady-state inactivation V0.5 compared to the unmodified NaV channel” value ([4]; toward hyperpolarized potentials, concentration not given)?
The value was 23 mV.

With `NC1=N[C@H](O)[C@H]2[C@H]3O[C@]4(O)O[C@@H]([C@@H](O)[C@@]2(N1)[C@@H]4O)[C@]3(O)CO` [TTX, tetrodotoxin] as the compound, how does the TTX potency (NaV1.8) read?
The TTX potency was 60 µM.

And the TTX potency (NaV1.2)?
Its TTX potency is 0.012 µM.
